# Source: patent US8187825B2, “Thiol detection method” (Riken, priority 2008, dated 2012)
# Key:
# [1] = Fluorescence measurement in solution with GSH; conditions: 100 nM probe
# Protocol: The 100 nM probe (compound 4) was allowed to react with 10 mM GSH in 50 mM Tris-HCl (pH 7.4) at 37° C. for 30 minutes. Thereafter, the fluorescence intensity was measured using a fluorescence spectrometer (FP-6500; JASCO) (excitation wavelength: 540 nm).
# [2] = system: HL60; assay: Flow cytometry of HL60 cells; format: cell-based; conditions: 100 μM probe, 37° C., 15 minutes; control pre-treated with 1 mM N-methylmaleimide 30 minutes
# Protocol: The 100 μM probe (compound 4) was added to HL60, and the mixture was then reacted at 37° C. for 15 minutes. Thereafter, a measurement was then carried out by flow cytometry. 1 mM N-methylmaleimide (N-MMI) used as a thiol-blocking agent was added to HL60, and the obtained mixture was then reacted at 37° C. for 30 minutes. Thereafter, the 100 μM probe was added to the reaction product, and the obtained mixture was reacted at 37° C. for 15 minutes. Thereafter, the measurement was carried out by flow cytometry.
# [3] = Reactivity of probe with thiol (fluorescence intensity at 522 nm); conditions: 1 μM probe, 37° C., 30 minutes, 50 mM Tris-HCl pH 7.4
# Protocol: The reactivity of the probe (compound 2) with several types of thiols was examined by measuring an increase in the fluorescence intensity at 522 nm. The reaction was carried out using the 1 μM probe and 1 mM thiol at 37° C. for 30 minutes in 50 mM Tris-HCl (pH 7.4).
# In addition, as a comparative example, a compound represented by the following formula (3) was used as a probe, and its reactivity was examined in the same above manner:
# After addition of thiol, the solution was incubated at 37° C. for 30 minutes. The fluorescence at 522 nm was monitored by excitation at 490 nm. “3′-thio dT” indicates 3′-phosphorothioate-2′-deoxythymidine; “DTT” indicates dithiothreitol; “GSH” indicates glutathione; “L-Gly” indicates L-glycine; and “Vc” indicates ascorbic acid.
# [4] = Stability of probe on heating in Tris buffer; format: physicochemical; conditions: 55° C. for 24 hours in 50 mM Tris buffer (pH 7.4)
# [5] = system: HeLa cells; assay: Fluorescence microscope observation of living HeLa cells; format: cell-based
# Protocol: HeLa cells were allowed to grow at 37° C. in a 5% CO2 atmosphere in MEM in order to use them for a test with living cells. The cells were incubated at 37° C. for 15 minutes in the presence of the 25 μM probe (compound 2) (1:100 DMSO/PBS(−), v/v). As a control experiment, the cells were treated with 1 mM N-methylmaleimide in PBS(−) at 37° C. for 60 minutes, and the resultant cells were then washed with a PBS(−) buffer three times. Thereafter, the cells were incubated at 37° C. for 15 minutes in the presence of the 25 μM probe (1:100 DMSO/PBS(−), v/v).
# The fluorescence image was obtained using a digital camera (Cool Snap HQ; Roper Scientific) and imaging software (MetaMorph; Molecular Devices), under a fluorescence microscope equipped with a mercury lamp (Axiovert 200M; Carl Zeiss). The conditions of the microscope were determined as follows. Excitation: 470/40 bandpass filter; light emission: 525/50 bandpass filter; and irradiation time: 300 msec.
# (a, b): a control image of the cells, which were pre-treated with N-methylmaleimide (1 mM) at 37° C. for 60 minutes and were then incubated together with the probe (25 μM) at 37° C. for 15 minutes; (c, d): an image of the cells, which were incubated together with the probe (25 μM) at 37° C. for 15 minutes; (a, c) a bright-field image; (b, d) a fluorescent image. The conditions of the microscope were determined as follows. Excitation: 470/40 bandpass filter; light emission: 525/50 bandpass filter; and irradiation time: 300 msec.
# [6] = Fluorescence measurement of probe with cysteine; conditions: 100 nM probe
# Protocol: The reaction was carried out using the 100 nM probe (compound 2) and 10 mM cysteine at 37° C. for 30 minutes in 50 mM Tris-HCl (pH 7.4). A fluorescence spectrum was obtained with a fluorescence spectrometer (FP-6500; JASCO). Fluorescence was obtained by excitation at 490 nm at a scanning range of 450 to 650 nm.
# Fluorescence was monitored by excitation at 490 nm.
# [7] = cited from earlier work
smiles,measurement,setting,value
Nc1ccc2nc3c4ccccc4/c(=N\S(=O)(=O)c4ccc([N+](=O)[O-])cc4[N+](=O)[O-])cc-3oc2c1 [compound 4],fluorescence intensity at 620 nm after reaction with GSH,"[1]; 10 mM GSH, 37° C., 30 minutes, 50 mM Tris-HCl pH 7.4, excitation 540 nm",an increase in the fluorescence intensity was observed
same,fluorescence of the probe as a single body (without GSH),"[1]; excitation 540 nm, 50 mM Tris-HCl pH 7.4",generated no fluorescence
same,fluorescence intensity of HL60 cells (−N-MMI) versus HL60 cells (+N-MMI),[2],higher
"O=C1OC2(c3ccc(NS(=O)(=O)c4ccc([N+](=O)[O-])cc4)cc3Oc3cc(NS(=O)(=O)c4ccc([N+](=O)[O-])cc4)ccc32)c2ccccc21 [formula (3), reference compound]",increase in fluorescence intensity at 522 nm,[3]; 1 mM phosphorothioate (3′-thio dT),approximately 950 times
same,reaction with other thiol groups,[3]; 1 mM thiols other than phosphorothioate,did not react with other thiol groups
O=C1OC2(c3ccc(NS(=O)(=O)c4ccc([N+](=O)[O-])cc4[N+](=O)[O-])cc3Oc3cc(NS(=O)(=O)c4ccc([N+](=O)[O-])cc4[N+](=O)[O-])ccc32)c2ccccc21 [compound 2],stability: fluorescence signal after heating,[4],no increase in the fluorescence signal was detected
same,fluorescence signal of cells pre-treated with thiol-blocking agent,"[5]; HeLa cells pre-treated with 1 mM N-methylmaleimide 60 minutes, then 25 μM probe 15 minutes",no fluorescence signal was observed
same,permeation into cells,"[5]; HeLa cells, 25 μM probe",permeates into the cell membrane
same,fluorescence signal of cells,"[5]; HeLa cells, 25 μM probe, 15 minutes, 37° C.",significant fluorescence signal
same,increase in fluorescence intensity at 522 nm,[3]; 1 mM 2-mercaptoethanol (ME),11 times
same,activity on other biological substances (selectivity),"[3]; glycine, ascorbic acid, or hydrogen peroxide",did not exhibit activity
same,increase in fluorescence intensity around 520 nm after addition of cysteine (factor),"[6]; 10 mM cysteine, 50 mM Tris-HCl pH 7.4, 37° C., 30 minutes, excitation 490 nm",approximately 3500
same,fluorescence of the probe without cysteine,"[6]; no cysteine, 50 mM Tris-HCl pH 7.4, excitation 490 nm",no significant fluorescence was observed
OCCS [2-mercaptoethanol],pKa value,[7],9.5
